Results taken from ChEMBL document CHEMBL5257025, “Artemisinin-Derived Dimers: Potent Antimalarial and Anticancer Agents” (J Med Chem, 2016).
Values belong to the compound of their own block, whether it stands above or below them.

How the values were obtained:
[1] = test system: MCF7; assay: Antiproliferative activity against human MCF7 cells assessed as reduction in cell viability measured after 48 hrs by SRB assay; format: functional, cell-based; details: MCF7, 48 h
[2] = test system: HL-60; assay: Antiproliferative activity against human HL-60 cells assessed as reduction in cell viability incubated for 48 hrs by MTT assay; format: functional, cell-based; details: HL-60, 48 h
[3] = test system: SK-OV-3; assay: Antiproliferative activity against human SK-OV-3 cells assessed as reduction in cell viability incubated for 48 hrs by MTT assay; format: functional, cell-based; details: SK-OV-3, 48 h
[4] = test system: PC-3; assay: Antiproliferative activity against human PC-3 cells assessed as cell growth inhibition; format: functional, cell-based
[5] = test system: T47D; assay: Antiproliferative activity against human T47D cells assessed as inhibition of cell growth; format: functional, cell-based
[6] = test system: LOX IMVI; assay: Antiproliferative activity against human LOX IMVI cells assessed as cell growth inhibition; format: functional, cell-based
[7] = test system: K562; assay: Antiproliferative activity against human K562 cells assessed as reduction in cell viability by MTT assay; format: functional, cell-based
[8] = test system: OVCAR-3; assay: Antiproliferative activity against human OVCAR-3 cells assessed as reduction in cell viability; format: functional, cell-based
[9] = test system: A498; assay: Antiproliferative activity against human A498 cells assessed as reduction in cell viability; format: functional, cell-based
[10] = test system: CAKI-1; assay: Antiproliferative activity against human CAKI-1 cells assessed as reduction in cell viability after 48 hrs by SRB assay; format: functional, cell-based; details: CAKI-1, 48 h
[11] = test system: M14; assay: Antiproliferative activity against human M14 cells assessed as growth inhibition incubated for 72 hrs by luminescence assay; format: functional, cell-based; details: M14, 72 h
[12] = test system: DU-145; assay: Antiproliferative activity against human DU-145 cells assessed as reduction in cell viability; format: functional, cell-based
[13] = test system: Plasmodium falciparum; assay: Antimalarial activity against Plasmodium falciparum NF54 assessed as reduction in cell growth; format: functional, organism-based
[14] = test system: C2D cell line; assay: Cytotoxicity against mouse C2D cell line assessed as inhibition of cell growth measured after 72 hrs by MTT assay; format: functional, cell-based
[15] = test system: C2G cell line; assay: Cytotoxicity against mouse C2G cells assessed as inhibition of cell growth measured after 72 hrs by MTT assay; format: functional, cell-based
[16] = test system: TRAMP-C2H; assay: Cytotoxicity against mouse TRAMP-C2H cells assessed as inhibition of cell growth measured after 72 hs by MTT assay; format: functional, cell-based
[17] = test system: HeLa; assay: Antiproliferative activity against human Hela cells assessed as cell growth inhibition measured after 48 hrs by MTT assay; format: functional, cell-based
[18] = test system: HCT-116; assay: Antiproliferative activity against human HCT-116 cells assessed as growth after 48 hrs by MTT assay; format: functional, cell-based; details: HCT-116, 48 h
[19] = Antiproliferative activity against human 1205Lu cells assessed as reduction in cell growth; format: functional, cell-based
[20] = Cytotoxicity against human HFF cells assessed as cell growth inhibition measured after 48 hrs by MTT assay; format: toxicity, cell-based
[21] = Cytotoxicity against rat MTLn3 cells assessed as cell growth inhibition; format: toxicity, cell-based
[22] = test system: Plasmodium berghei; assay: In vivo antimalarial activity against Plasmodium berghei infected mouse model assessed as survival time at 8 mg/kg, po in presence of Mefloquine hydrochloride
[23] = test system: Plasmodium falciparum; assay: Antimalarial activity against Plasmodium falciparum D10 assessed as inhibition of parasitic growth; format: functional, organism-based
[24] = Cytotoxicity against African green monkey Vero cells; format: toxicity, cell-based; details: chlorocebus sabaeus, read-out: TC50 (the source's name)
[25] = test system: Plasmodium falciparum; assay: Antimalarial activity against Plasmodium falciparum 3D7 assessed as inhibition of malarial growth; format: functional, organism-based
[26] = Cytotoxicity against CHO cells assessed as reduction in cell viability; format: toxicity, cell-based, Cricetulus griseus; details: chinese hamster, read-out: TC50 (the source's name)
[27] = test system: Plasmodium falciparum; assay: microbe, parasite or virus in culture; details: W2
Description: Antiplasmodial activity against Plasmodium falciparum W2 assessed as inhibition of cell growth

[28] = test system: Plasmodium falciparum; assay: microbe, parasite or virus in culture; details: K1
Description: Antiplasmodial activity against Plasmodium falciparum K1 assessed as inhibition of parasitic growth

[29] = test system: Plasmodium falciparum; assay: microbe, parasite or virus in culture; details: D6
Description: Antiplasmodial activity against Plasmodium falciparum D6 assessed as inhibition of parasitic growth

[30] = test system: Plasmodium falciparum; assay: microbe, parasite or virus in culture; details: Dd2
Description: Antiplasmodial activity against Plasmodium falciparum Dd2 assessed as inhibition of parasitic growth

[31] = test system: Plasmodium falciparum; assay: Antimalarial activity against Plasmodium falciparum K1 assessed as inhibition of malarial growth; format: functional, organism-based
[32] = test system: Plasmodium falciparum; assay: Antimalarial activity against Plasmodium falciparum W2 assessed as reduction in malarial growth; format: functional, organism-based
[33] = test system: CAKI-2; assay: Antiproliferative activity against human CAKI-2 cells assessed as inhibition of cell growth; format: functional, cell-based
[34] = test system: HL-60; assay: Antiproliferative activity against human HL-60 cells assessed as cell growth inhibition measured after 48 hrs by SRB assay; format: functional, cell-based; details: HL-60, 48 h
[35] = test system: BT-549; assay: Antiproliferative activity against human BT-549 cells assessed as cell growth inhibition measured after 72 hrs by SRB assay; format: functional, cell-based; details: BT-549, 72 h
[36] = Cytotoxicity against pig LLC-PK1 cells; format: toxicity, cell-based, Sus scrofa; details: read-out: TC50 (the source's name)
[37] = test system: ADR5000 cell line; assay: Antiproliferative activity against human CEM/ADR5000 cells assessed as reduction in cell viability incubated for 48 hrs by MTT assay; format: functional, cell-based; details: ADR5000, 48 h
[38] = test system: Jurkat; assay: Antiproliferative activity against human Jurkat cells assessed as reduction in cell viability incubated for 48 hrs by MTT assay; format: functional, cell-based
[39] = test system: SK-MEL; assay: Antiproliferative activity against human SK-MEL cells assessed as reduction in cell viability incubated for 48 hrs by MTT assay; format: functional, cell-based
[40] = test system: KB; assay: Antiproliferative activity against human KB cells assessed as reduction in cell viability incubated for 48 hrs by MTT assay; format: functional, cell-based
[41] = test system: BT-549; assay: Antiproliferative activity against human BT-549 cells assessed as reduction in cell viability incubated for 48 hrs by MTT assay; format: functional, cell-based; details: BT-549, 48 h
[42] = test system: SK-MEL-2; assay: Antiproliferative activity against human SK-MEL-2 cells assessed as reduction in cell viability incubated for 48 hrs by MTT assay; format: functional, cell-based; details: SK-MEL-2, 48 h
[43] = test system: XF498; assay: Antiproliferative activity against human XF498 cells assessed as reduction in cell viability incubated for 48 hrs by MTT assay; format: functional, cell-based; details: XF498, 48 h
[44] = test system: SK-VLB; assay: Antiproliferative activity against human SK-VLB cells assessed as reduction in cell viability incubated for 48 hrs by MTT assay; format: functional, cell-based
[45] = test system: SK-MEL; assay: Antiproliferative activity against human SK-MEL cells assessed as reduction in cell growth inhibition; format: functional, cell-based
[46] = test system: A549; assay: cells; details: Homo sapiens, A549, 48 h
[47] = test system: HCT-15; assay: cells; details: Homo sapiens, HCT-15, 48 h
Description: Antiproliferative activity against human HCT-15 cells assessed as reduction in cell viability incubated for 48 hrs by MTT assay

[48] = test system: UACC-62; assay: Antiproliferative activity against human UACC-62 cells assessed as reduction in cell viability incubated for 48 hrs by SRB assay; format: functional, cell-based; details: UACC-62, 48 h
[49] = test system: TK-10; assay: Antiproliferative activity against human TK-10 cells assessed as reduction in cell viability incubated for 48 hrs by SRB assay; format: functional, cell-based; details: TK-10, 48 h
[50] = test system: BeWo; assay: Antiproliferative activity against human BeWo cells assessed as reduction in cell viability after 72 hrs by MTT assay; format: functional, cell-based
[51] = test system: P388; assay: Antiproliferative activity against mouse P388 cells assessed as cell growth inhibition incubated for 72 hrs by MTT assay; format: functional, cell-based; details: P388, 72 h
[52] = test system: EL4; assay: Antiproliferative activity against mouse EL4 cells assessed as cell growth inhibition incubated for 72 hrs by MTT assay; format: functional, cell-based; details: EL4, 72 h
[53] = Antiproliferative activity against human YD-10B cells assessed as cell growth inhibition measured after 72 hrs by MTT assay; format: functional, cell-based
[54] = test system: HT-29; assay: cells; details: Homo sapiens, HT-29, 72 h

Compound: C[C@@H]1CC[C@H]2[C@@H](C)C(OCC(COC3O[C@H]4O[C@@]5(C)CC[C@H]6[C@H](C)CC[C@@H]([C@H]3C)[C@@]46OO5)OC(=O)CCC(=O)O)O[C@H]3O[C@@]4(C)CC[C@@H]1[C@]32OO4 (stereo partly drawn)
IC50 [1]: 200 nM
IC50 [2]: 60 nM
IC50 [3]: 25000 nM
IC50 [4]: 40 nM
IC50 [5]: 75 nM
IC50 [6]: 80 nM
IC50 [7]: 200 nM
IC50 [8]: 250 nM
IC50 [9]: 20000 nM
IC50 [10]: 30000 nM
IC50 [11]: 30000 nM
IC50 [12]: 20000 nM

Compound: C[C@@H]1CC[C@H]2[C@@H](C)C(OCC(COC3O[C@H]4O[C@@]5(C)CC[C@H]6[C@H](C)CC[C@@H]([C@H]3C)[C@@]46OO5)=NO)O[C@H]3O[C@@]4(C)CC[C@@H]1[C@]32OO4 (stereo partly drawn)
IC50 [1]: 60 nM
IC50 [2]: 40 nM
IC50 [3]: 15000 nM
IC50 [4]: 20 nM
IC50 [5]: 30 nM
IC50 [6]: 55 nM
IC50 [7]: 150 nM
IC50 [8]: 200 nM
IC50 [9]: 6500 nM
IC50 [10]: 13000 nM
IC50 [11]: 15000 nM
IC50 [12]: 15000 nM

Compound: C[C@@H]1CC[C@H]2[C@@H](C)C(CC(CO)CC3O[C@H]4O[C@@]5(C)CC[C@H]6[C@H](C)CC[C@@H]([C@H]3C)[C@@]46OO5)O[C@H]3O[C@@]4(C)CC[C@@H]1[C@]32OO4 (stereo partly drawn)
IC50 [13]: 0.87 nM
IC50 [14]: 18.5 nM
IC50 [15]: 15.4 nM
IC50 [16]: 9.2 nM
IC50 [17]: 1060 nM
IC50 [18]: 100 nM
IC50 [19]: 4900 nM
IC50 at 48 h [20]: 48100 nM
IC50 [21]: 43 nM

Compound: C[C@@H]1CC[C@H]2[C@@H](C)C(CC(CC3O[C@@H]4O[C@]5(C)CC[C@@H]6[C@@H](C)CC[C@H]([C@@H]3C)[C@]46OO5)C[Si](C)(C)C)O[C@H]3O[C@@]4(C)CC[C@@H]1[C@]32OO4 (stereo partly drawn)
survival time [22]: > 57 days

Compound: C[C@H]1[C@@H](O)O[C@H]2O[C@@]3(C)CC[C@H]4[C@H](C)CC[C@@H]1[C@@]24OO3
IC50 [23]: 2.09 nM
CC50 [24]: 1410 nM
IC50 [25]: 2.09 nM
CC50 [26]: 148000 nM
IC50 [27]: 2.09 nM
IC50 [28]: 2.09 nM
IC50 [29]: 2.09 nM
IC50 [30]: 2.09 nM

Compound: C[C@@H]1CC[C@H]2[C@@H](C)C(=O)O[C@@H]3O[C@@]4(C)CC[C@@H]1[C@]32OO4 [ARTEMISININ]
CC50 [24]: > 1690 nM
IC50 [31]: 7.81 nM
IC50 [13]: 6.9 nM
IC50 [32]: 6.6 nM
IC50 [33]: 40000 nM
IC50 [34]: 40000 nM
IC50 [35]: 40000 nM
IC50 [30]: 6.9 nM

IC50 [2]: 9 nM
IC50 [38]: 9 nM
IC50 [39]: 9 nM
IC50 [40]: 9 nM
IC50 [41]: 9 nM
IC50 [3]: 9 nM
IC50 [42]: 9 nM
IC50 [44]: 9 nM
IC50 [45]: 170 nM
IC50 [46]: 9 nM
IC50 [47]: 9 nM
Compound: COc1cccc2c1C(=O)c1c(O)c3c(c(O)c1C2=O)C[C@@](O)(C(=O)CO)C[C@@H]3O[C@H]1C[C@H](N)[C@H](O)[C@H](C)O1 [DOXORUBICIN]
CC50 [36]: 1290 nM
IC50 [37]: 9 nM
IC50 [43]: 9 nM

IC50 [1]: 830 nM
Compound: COc1cc([C@@H]2c3cc4c(cc3[C@@H](O[C@@H]3O[C@@H]5CO[C@@H](C)O[C@H]5[C@H](O)[C@H]3O)[C@H]3COC(=O)[C@H]23)OCO4)cc(OC)c1O [ETOPOSIDE]
IC50 [48]: 830 nM
IC50 [49]: 830 nM

IC50 [1]: 0.1 nM
IC50 [40]: 0.1 nM
IC50 [41]: 0.1 nM
IC50 [3]: 0.1 nM
IC50 [51]: 0.1 nM
IC50 [45]: 0.1 nM
IC50 [54]: 0.1 nM
Compound: CC(=O)O[C@H]1C(=O)[C@@]2(C)[C@H]([C@H](OC(=O)c3ccccc3)[C@]3(O)C[C@H](OC(=O)[C@H](O)[C@@H](NC(=O)c4ccccc4)c4ccccc4)C(C)=C1C3(C)C)[C@]1(OC(C)=O)CO[C@@H]1C[C@@H]2O [PACLITAXEL]
CC50 [36]: 4390 nM
IC50 [50]: 0.1 nM
IC50 [52]: 0.1 nM
IC50 [53]: 0.1 nM
